From PMC8548913, “Piezo1–Pannexin1 complex couples force detection to ATP secretion in cholangiocytes” (The Journal of General Physiology, 2021)

Target: T1, Piezo1 (Mus musculus, UniProt E2JF22)
T1 construct: native full-length channel in primary cultured cholangiocytes (DIV5) from intrahepatic bile duct units; monomer ~290 kD band reported for GFP-tagged protein
Assay: Fura-2 ratiometric Ca2+ imaging
Type: cell-based
Conditions: agonist; native DIV5 mouse cholangiocytes, 2.5 mM external Ca2+; Yoda1 without effect in Piezo1-knockout HEK293T cells; read-out: apparent EC50
Source text: Fura-2 ratiometric Ca2+ imaging on Piezo1 | Concentration-response profile for Yoda1 in mouse DIV5 cholangiocytes, yielding apparent EC50

T1 sequence (E2JF22 whole entry): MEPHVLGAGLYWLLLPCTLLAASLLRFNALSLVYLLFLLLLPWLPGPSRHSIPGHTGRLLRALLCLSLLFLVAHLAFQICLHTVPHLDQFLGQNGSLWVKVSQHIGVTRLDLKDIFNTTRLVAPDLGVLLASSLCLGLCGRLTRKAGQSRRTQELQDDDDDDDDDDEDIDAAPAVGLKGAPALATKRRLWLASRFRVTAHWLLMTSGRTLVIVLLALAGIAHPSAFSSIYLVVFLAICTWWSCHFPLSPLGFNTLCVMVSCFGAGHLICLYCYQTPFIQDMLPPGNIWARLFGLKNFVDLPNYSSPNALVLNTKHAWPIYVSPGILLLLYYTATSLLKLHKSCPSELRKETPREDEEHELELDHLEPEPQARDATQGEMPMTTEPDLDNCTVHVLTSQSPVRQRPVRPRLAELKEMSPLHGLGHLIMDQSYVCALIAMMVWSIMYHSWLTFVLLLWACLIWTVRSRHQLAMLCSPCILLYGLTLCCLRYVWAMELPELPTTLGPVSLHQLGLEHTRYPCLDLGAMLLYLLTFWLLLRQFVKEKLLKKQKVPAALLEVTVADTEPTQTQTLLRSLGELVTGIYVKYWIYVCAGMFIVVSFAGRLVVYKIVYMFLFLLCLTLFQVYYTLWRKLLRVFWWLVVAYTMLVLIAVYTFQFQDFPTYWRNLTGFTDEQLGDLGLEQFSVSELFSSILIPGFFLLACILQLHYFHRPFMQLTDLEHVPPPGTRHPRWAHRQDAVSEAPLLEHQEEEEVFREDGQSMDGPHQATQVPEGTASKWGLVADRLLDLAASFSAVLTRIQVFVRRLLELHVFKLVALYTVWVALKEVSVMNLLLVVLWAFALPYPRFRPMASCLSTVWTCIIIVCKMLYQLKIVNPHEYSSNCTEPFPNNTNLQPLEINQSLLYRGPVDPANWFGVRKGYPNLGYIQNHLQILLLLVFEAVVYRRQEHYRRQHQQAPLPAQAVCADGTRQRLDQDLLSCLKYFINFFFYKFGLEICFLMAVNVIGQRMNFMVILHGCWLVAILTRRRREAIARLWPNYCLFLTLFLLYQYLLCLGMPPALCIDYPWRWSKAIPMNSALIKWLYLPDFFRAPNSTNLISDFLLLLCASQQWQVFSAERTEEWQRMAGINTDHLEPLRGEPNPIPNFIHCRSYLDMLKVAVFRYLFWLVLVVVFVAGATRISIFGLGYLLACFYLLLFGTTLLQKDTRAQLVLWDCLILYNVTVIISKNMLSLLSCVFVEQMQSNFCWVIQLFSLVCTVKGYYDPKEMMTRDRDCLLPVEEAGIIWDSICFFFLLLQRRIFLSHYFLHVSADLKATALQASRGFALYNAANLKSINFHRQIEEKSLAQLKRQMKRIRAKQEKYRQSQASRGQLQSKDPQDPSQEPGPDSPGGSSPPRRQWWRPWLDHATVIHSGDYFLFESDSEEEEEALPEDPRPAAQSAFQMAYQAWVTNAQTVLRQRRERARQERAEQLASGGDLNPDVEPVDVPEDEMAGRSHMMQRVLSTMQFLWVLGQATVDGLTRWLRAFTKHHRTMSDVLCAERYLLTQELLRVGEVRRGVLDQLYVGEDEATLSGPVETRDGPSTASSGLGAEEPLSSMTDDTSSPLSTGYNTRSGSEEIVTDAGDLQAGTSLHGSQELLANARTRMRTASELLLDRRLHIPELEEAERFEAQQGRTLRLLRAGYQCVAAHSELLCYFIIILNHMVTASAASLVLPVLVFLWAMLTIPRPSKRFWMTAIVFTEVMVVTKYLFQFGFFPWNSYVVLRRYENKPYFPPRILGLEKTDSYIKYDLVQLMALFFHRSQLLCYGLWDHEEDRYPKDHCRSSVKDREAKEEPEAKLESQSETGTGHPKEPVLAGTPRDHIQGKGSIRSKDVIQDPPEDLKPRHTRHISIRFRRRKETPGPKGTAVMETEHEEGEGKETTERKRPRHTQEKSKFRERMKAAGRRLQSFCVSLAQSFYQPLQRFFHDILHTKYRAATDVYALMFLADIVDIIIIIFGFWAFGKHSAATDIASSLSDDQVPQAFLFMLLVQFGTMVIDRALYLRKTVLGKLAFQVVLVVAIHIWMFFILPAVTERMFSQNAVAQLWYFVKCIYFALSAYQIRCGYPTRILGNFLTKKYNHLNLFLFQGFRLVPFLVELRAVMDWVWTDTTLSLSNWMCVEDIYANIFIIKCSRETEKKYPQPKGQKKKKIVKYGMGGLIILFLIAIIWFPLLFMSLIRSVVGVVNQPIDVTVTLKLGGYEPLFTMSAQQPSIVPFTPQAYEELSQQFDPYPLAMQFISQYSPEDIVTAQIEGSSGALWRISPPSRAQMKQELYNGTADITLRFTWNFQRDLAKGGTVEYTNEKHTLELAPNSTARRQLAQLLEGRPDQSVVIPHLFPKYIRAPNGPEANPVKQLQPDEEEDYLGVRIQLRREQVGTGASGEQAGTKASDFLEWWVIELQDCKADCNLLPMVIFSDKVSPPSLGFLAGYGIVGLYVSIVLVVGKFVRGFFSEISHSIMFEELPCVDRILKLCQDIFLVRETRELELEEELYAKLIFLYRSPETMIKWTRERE

EC50: 29.4 ± 1.25 µM
SMILES: Clc1cccc(Cl)c1CSc1nnc(-c2cnccn2)s1 [Yoda1]
